ChEMBL document CHEMBL1201862, “PubChem BioAssay data set” (2004)
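Five compound concentrations were applied to cells in 96-well plates for 48 hours; endpoints were derived by simple linear interpolation of the resulting dose-response curve. GI50 marks 50% less growth.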 Activity calls are given as the source filed them. No stated cut-off is given here; in the data, active = GI50 up to about 1.1 µM and inactive = higher.

What was measured:
Test in all cases: inhibition of tumour cell growth, NCI panel, 48 h
[1] = test system: A498
[2] = test system: BT-549
[3] = test system: CAKI-1
[4] = test system: CCRF-CEM
[5] = test system: DU-145
[6] = test system: HCC 2998
[7] = test system: HOP-92
[8] = test system: Hs-578T
[9] = test system: NCI-H460
[10] = test system: NCI/ADR-RES
[11] = test system: OVCAR-3
[12] = test system: OVCAR-4
[13] = test system: SF-268
[14] = test system: SF-539
[15] = test system: SNB-75
[16] = test system: SR
[17] = test system: TK-10
[18] = test system: UO-31
[19] = test system: Malme-3M
[20] = test system: NCI-H226

SMILES | GI50 [1] | GI50 [2] | GI50 [3] | GI50 [4] | GI50 [5] | GI50 [6] | GI50 [7] | GI50 [8] | GI50 [9] | GI50 [10] | GI50 [11] | GI50 [12] | GI50 [13] | GI50 [14] | GI50 [15] | GI50 [16] | GI50 [17] | GI50 [18] | GI50 [19] | GI50 [20]
CN(C(=O)C12C3(C(=O)O)C4C5(C(=O)O)C3C1(C(=O)O)C5C42C(=O)O)C(C)(C)C (centres undefined) | > 100 µM (inactive) | > 100 µM (inactive) | > 100 µM (inactive) | > 100 µM (inactive) | > 100 µM (inactive) | > 100 µM (inactive) | > 100 µM (inactive) | > 100 µM (inactive) | > 100 µM (inactive) | > 100 µM (inactive) | > 100 µM (inactive) | > 100 µM (inactive) | > 100 µM (inactive) | > 100 µM (inactive) | 0.442 µM (active) | > 100 µM (inactive) | > 100 µM (inactive) | > 100 µM (inactive) | – | –
Nc1nc(Cl)cc(NCC2(CO)CCC(O)C2)n1 (centres undefined) | > 100 µM (inactive) | > 100 µM (inactive) | > 100 µM (inactive) | > 100 µM (inactive) | > 100 µM (inactive) | – | > 100 µM (inactive) | > 100 µM (inactive) | > 100 µM (inactive) | > 100 µM (inactive) | > 100 µM (inactive) | > 100 µM (inactive) | > 100 µM (inactive) | > 100 µM (inactive) | > 100 µM (inactive) | > 100 µM (inactive) | > 100 µM (inactive) | > 100 µM (inactive) | > 100 µM (inactive) | > 100 µM (inactive)
CCCCn1c(C)c(C(=O)OCC)s/c1=N/Nc1nc2ccccc2nc1-c1ccccc1 | 58.5 µM (inactive) | > 100 µM (inactive) | > 100 µM (inactive) | > 100 µM (inactive) | 37.7 µM (inactive) | > 100 µM (inactive) | 44 µM (inactive) | 26.2 µM (inactive) | > 100 µM (inactive) | > 100 µM (inactive) | 72.1 µM (inactive) | 65 µM (inactive) | – | > 100 µM (inactive) | > 100 µM (inactive) | > 100 µM (inactive) | > 100 µM (inactive) | – | – | 78.5 µM (inactive)
COc1ccc([N+](=O)[O-])c2c(NCCCN(C)C)c(C)c(C)nc12 | > 100 µM (inactive) | 56.6 µM (inactive) | > 100 µM (inactive) | > 100 µM (inactive) | > 100 µM (inactive) | > 100 µM (inactive) | 23.9 µM (inactive) | > 100 µM (inactive) | 34.4 µM (inactive) | > 100 µM (inactive) | 96.6 µM (inactive) | 27.8 µM (inactive) | > 100 µM (inactive) | > 100 µM (inactive) | 36.1 µM (inactive) | 14.3 µM (inactive) | > 100 µM (inactive) | > 100 µM (inactive) | 45.1 µM (inactive) | –
NCCCCCNOCCCN | – | > 100 µM (inactive) | – | > 100 µM (inactive) | > 100 µM (inactive) | > 100 µM (inactive) | > 100 µM (inactive) | > 100 µM (inactive) | > 100 µM (inactive) | > 100 µM (inactive) | > 100 µM (inactive) | > 100 µM (inactive) | > 100 µM (inactive) | > 100 µM (inactive) | 63.1 µM (inactive) | > 100 µM (inactive) | > 100 µM (inactive) | > 100 µM (inactive) | > 100 µM (inactive) | > 100 µM (inactive)
O=C1c2ccccc2C(=O)N1c1ccc(OCCN2CCCCC2)cc1 | > 100 µM (inactive) | > 100 µM (inactive) | > 100 µM (inactive) | > 100 µM (inactive) | > 100 µM (inactive) | > 100 µM (inactive) | > 100 µM (inactive) | > 100 µM (inactive) | > 100 µM (inactive) | > 100 µM (inactive) | > 100 µM (inactive) | > 100 µM (inactive) | > 100 µM (inactive) | > 100 µM (inactive) | – | > 100 µM (inactive) | > 100 µM (inactive) | – | > 100 µM (inactive) | > 100 µM (inactive)
O=S(=O)(Nc1nc2ccccc2nc1Nc1cccc2ccccc12)c1ccccc1 | – | 10.4 µM (inactive) | 31.8 µM (inactive) | – | > 100 µM (inactive) | 2.16 µM (inactive) | 2.7 µM (inactive) | 21.1 µM (inactive) | 4.41 µM (inactive) | 13.6 µM (inactive) | 4.67 µM (inactive) | 1.24 µM (inactive) | 26.5 µM (inactive) | 44.9 µM (inactive) | 15.5 µM (inactive) | > 100 µM (inactive) | 8.93 µM (inactive) | 2.43 µM (inactive) | 4.48 µM (inactive) | 40.6 µM (inactive)
O=C(CCCCCCCCC(=O)N1C(=O)CC(=O)N(c2ccccc2)C1=S)N1C(=O)CC(=O)N(c2ccccc2)C1=S | > 100 µM (inactive) | > 100 µM (inactive) | > 100 µM (inactive) | > 100 µM (inactive) | > 100 µM (inactive) | > 100 µM (inactive) | > 100 µM (inactive) | > 100 µM (inactive) | > 100 µM (inactive) | > 100 µM (inactive) | > 100 µM (inactive) | > 100 µM (inactive) | > 100 µM (inactive) | – | > 100 µM (inactive) | > 100 µM (inactive) | > 100 µM (inactive) | > 100 µM (inactive) | > 100 µM (inactive) | –
C/C(=C/CC[C@](C)(OC1OC(CO)C(O)C(O)C1OC1OC(C)C(O)C(O)C1O)[C@H]1CC[C@]2(C)[C@@H]1CC[C@@H]1[C@@]3(C)CC[C@H](O)C(C)(C)[C@@H]3C[C@H](O)[C@]12C)CO (some centres undefined) | > 100 µM (inactive) | > 100 µM (inactive) | > 100 µM (inactive) | > 100 µM (inactive) | > 100 µM (inactive) | – | > 100 µM (inactive) | > 100 µM (inactive) | > 100 µM (inactive) | > 100 µM (inactive) | > 100 µM (inactive) | > 100 µM (inactive) | > 100 µM (inactive) | > 100 µM (inactive) | > 100 µM (inactive) | > 100 µM (inactive) | > 100 µM (inactive) | > 100 µM (inactive) | > 100 µM (inactive) | > 100 µM (inactive)
CCOC(=O)C(Cc1ccccc1)(Cc1ccc(O)cn1)NC(=O)c1ccccc1 (centres undefined) | – | 30.1 µM (inactive) | 26.2 µM (inactive) | 7.03 µM (inactive) | 27.5 µM (inactive) | 25.1 µM (inactive) | 18.5 µM (inactive) | 16.3 µM (inactive) | 27.4 µM (inactive) | 26.4 µM (inactive) | 19.2 µM (inactive) | 27.4 µM (inactive) | 17.7 µM (inactive) | 23.8 µM (inactive) | 21.6 µM (inactive) | 6.56 µM (inactive) | 32.1 µM (inactive) | 29.6 µM (inactive) | 14.2 µM (inactive) | 29.2 µM (inactive)
Nc1ccccc1C(=O)CCc1c[nH]c2ccccc12 | > 100 µM (inactive) | 19.3 µM (inactive) | – | – | > 100 µM (inactive) | > 100 µM (inactive) | 13.3 µM (inactive) | 24.2 µM (inactive) | > 100 µM (inactive) | > 100 µM (inactive) | > 100 µM (inactive) | 20.3 µM (inactive) | 43.4 µM (inactive) | 30.3 µM (inactive) | 29.4 µM (inactive) | > 100 µM (inactive) | > 100 µM (inactive) | 5.4 µM (inactive) | > 100 µM (inactive) | > 100 µM (inactive)
COc1ccc(Nc2nc3cc(C(F)(F)F)ccc3n3cccc23)cc1OC | 14.7 µM (inactive) | 17.3 µM (inactive) | 27.9 µM (inactive) | 10.7 µM (inactive) | 20.3 µM (inactive) | 14 µM (inactive) | 15.7 µM (inactive) | 29.2 µM (inactive) | 10.4 µM (inactive) | 15.6 µM (inactive) | 20.7 µM (inactive) | – | 26.7 µM (inactive) | 16.8 µM (inactive) | 10.6 µM (inactive) | 9.89 µM (inactive) | 12.6 µM (inactive) | 22.8 µM (inactive) | 24.2 µM (inactive) | –
COc1cccc2c1C(=O)c1c(O)c3c(c(O)c1C2=O)CC(O)(C(O)CO)CC3OC1CC2C(OC3COCC(C#N)N32)C(C)O1 (centres undefined) | < 0.01 µM (active) | < 0.01 µM (active) | – | < 0.01 µM (active) | < 0.01 µM (active) | < 0.01 µM (active) | < 0.01 µM (active) | < 0.01 µM (active) | < 0.01 µM (active) | < 0.01 µM (active) | < 0.01 µM (active) | < 0.01 µM (active) | < 0.01 µM (active) | < 0.01 µM (active) | < 0.01 µM (active) | < 0.01 µM (active) | < 0.01 µM (active) | < 0.01 µM (active) | < 0.01 µM (active) | < 0.01 µM (active)
C=C(C)C1CCC2(CO)C(O)CC3(C)C(CCC4C5(C)CCC(O)C(C)(C)C5CCC43C)C12 (centres undefined) | 10.9 µM (inactive) | 11.6 µM (inactive) | 3.73 µM (inactive) | 50 µM (inactive) | 35.6 µM (inactive) | – | 11.4 µM (inactive) | 7.76 µM (inactive) | 11.8 µM (inactive) | 15.3 µM (inactive) | 11.4 µM (inactive) | – | 8.36 µM (inactive) | 12.7 µM (inactive) | 3.7 µM (inactive) | 42.8 µM (inactive) | 16.1 µM (inactive) | 3.82 µM (inactive) | 13.6 µM (inactive) | 34.6 µM (inactive)
COc1ccc(-c2cc(=O)c3c(O)cc(C)cc3o2)cc1OC | – | > 100 µM (inactive) | – | > 100 µM (inactive) | > 100 µM (inactive) | 79.6 µM (inactive) | 22.8 µM (inactive) | > 100 µM (inactive) | > 100 µM (inactive) | > 100 µM (inactive) | > 100 µM (inactive) | > 100 µM (inactive) | > 100 µM (inactive) | > 100 µM (inactive) | 67.1 µM (inactive) | > 100 µM (inactive) | > 100 µM (inactive) | > 100 µM (inactive) | > 100 µM (inactive) | > 100 µM (inactive)
